Calls of active or inactive are those of the source. No cut-off for these calls is given here.
Experiments:
[1] = biological target: T1, von Hippel-Lindau disease tumor suppressor/Histone-lysine N-methyltransferase, H3 lysine-79 specific (Homo sapiens, UniProt Q8TEK3+P40337); assay: PROTAC activity at VHL/DOT1L in mixed-lineage leukemia rearranged (MLL-r) human THP-1 cells assessed as induction of DOTIL degradation by measuring fold change in H3K79Me2 level at 3 uM incubated for 2 hrs by western blot analysis relative to control; assay type: cell-based
T1 sequence (P40337 whole entry, looked up): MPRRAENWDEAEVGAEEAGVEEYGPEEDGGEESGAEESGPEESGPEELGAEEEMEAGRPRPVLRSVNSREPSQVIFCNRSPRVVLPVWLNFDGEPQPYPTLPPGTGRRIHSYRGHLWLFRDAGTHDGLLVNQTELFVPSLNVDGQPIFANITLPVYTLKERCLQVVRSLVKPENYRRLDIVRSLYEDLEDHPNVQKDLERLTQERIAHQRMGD
T1 sequence (Q8TEK3 whole entry, looked up): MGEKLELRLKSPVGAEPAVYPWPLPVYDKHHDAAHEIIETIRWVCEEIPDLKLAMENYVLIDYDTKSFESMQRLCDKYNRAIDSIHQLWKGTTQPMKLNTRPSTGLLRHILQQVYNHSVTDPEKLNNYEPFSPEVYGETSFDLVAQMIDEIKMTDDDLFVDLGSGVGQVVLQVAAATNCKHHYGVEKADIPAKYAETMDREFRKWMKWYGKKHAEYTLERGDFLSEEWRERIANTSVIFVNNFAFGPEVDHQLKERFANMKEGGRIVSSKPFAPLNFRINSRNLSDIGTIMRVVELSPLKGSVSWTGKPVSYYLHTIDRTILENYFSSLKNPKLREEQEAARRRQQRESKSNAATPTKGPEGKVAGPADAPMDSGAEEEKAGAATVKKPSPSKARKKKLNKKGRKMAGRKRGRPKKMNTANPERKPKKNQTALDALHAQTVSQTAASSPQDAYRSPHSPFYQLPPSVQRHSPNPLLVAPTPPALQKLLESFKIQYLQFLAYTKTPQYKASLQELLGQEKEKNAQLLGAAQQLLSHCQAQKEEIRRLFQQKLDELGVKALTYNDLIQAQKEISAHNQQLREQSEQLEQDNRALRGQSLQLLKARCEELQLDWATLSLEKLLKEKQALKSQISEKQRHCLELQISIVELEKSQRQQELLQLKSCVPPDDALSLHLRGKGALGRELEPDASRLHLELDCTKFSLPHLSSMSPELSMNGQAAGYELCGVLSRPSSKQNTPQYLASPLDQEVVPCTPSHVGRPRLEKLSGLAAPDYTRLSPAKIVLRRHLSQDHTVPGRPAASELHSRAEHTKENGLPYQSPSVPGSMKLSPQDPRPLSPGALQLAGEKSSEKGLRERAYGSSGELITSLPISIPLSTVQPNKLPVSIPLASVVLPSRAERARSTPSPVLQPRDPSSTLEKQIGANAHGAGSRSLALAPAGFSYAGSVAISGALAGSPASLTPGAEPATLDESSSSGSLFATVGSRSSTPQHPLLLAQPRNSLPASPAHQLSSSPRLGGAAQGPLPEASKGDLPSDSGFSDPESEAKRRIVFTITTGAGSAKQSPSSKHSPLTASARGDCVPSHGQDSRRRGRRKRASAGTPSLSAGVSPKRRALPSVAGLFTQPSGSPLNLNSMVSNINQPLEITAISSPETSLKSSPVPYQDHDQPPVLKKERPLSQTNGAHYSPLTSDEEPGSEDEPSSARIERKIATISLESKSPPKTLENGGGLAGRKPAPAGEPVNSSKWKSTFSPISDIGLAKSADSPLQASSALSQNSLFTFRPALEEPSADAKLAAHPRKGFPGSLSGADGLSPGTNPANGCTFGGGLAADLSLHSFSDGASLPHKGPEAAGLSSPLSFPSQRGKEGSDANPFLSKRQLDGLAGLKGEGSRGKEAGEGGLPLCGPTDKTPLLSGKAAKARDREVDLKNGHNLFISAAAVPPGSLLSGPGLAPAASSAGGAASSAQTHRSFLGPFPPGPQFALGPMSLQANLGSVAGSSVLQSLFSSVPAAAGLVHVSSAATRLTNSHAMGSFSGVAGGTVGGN

[2] = biological target: T1, von Hippel-Lindau disease tumor suppressor/Histone-lysine N-methyltransferase, H3 lysine-79 specific; assay: PROTAC activity at VHL/DOT1L in mixed-lineage leukemia rearranged (MLL-r) human THP-1 cells assessed as induction of DOTIL degradation by measuring fold change in H3K79Me2 level at 3 uM incubated for 4 hrs by western blot analysis relative to control; assay type: cell-based
[3] = biological target: T1, von Hippel-Lindau disease tumor suppressor/Histone-lysine N-methyltransferase, H3 lysine-79 specific; assay: PROTAC activity at VHL/DOT1L in mixed-lineage leukemia rearranged (MLL-r) human MV4-11 cells assessed as induction of DOTIL degradation by measuring fold change in H3K79Me2 level at 3 uM incubated for 24 hrs by western blot analysis relative to control; assay type: cell-based
[4] = biological target: T1, von Hippel-Lindau disease tumor suppressor/Histone-lysine N-methyltransferase, H3 lysine-79 specific; assay: PROTAC activity against VHL/DOT1L in mixed-lineage leukemia rearranged (MLL-r) human THP-1 cells assessed as induction of DOT1L degradation at 3 uM preincubated with proteasome inhibitor, MG-132 for 1 hr followed by incubation with compound for 4 hrs by western blot analysis; assay type: cell-based
[5] = biological target: T2, Histone-lysine N-methyltransferase EHMT1 (Homo sapiens) (UniProt Q9H9B1); assay: Inhibition of human GLP using Histone H3 and SAM as substrate at 10 uM by radiometric Hotspot assay
T2 sequence (whole entry): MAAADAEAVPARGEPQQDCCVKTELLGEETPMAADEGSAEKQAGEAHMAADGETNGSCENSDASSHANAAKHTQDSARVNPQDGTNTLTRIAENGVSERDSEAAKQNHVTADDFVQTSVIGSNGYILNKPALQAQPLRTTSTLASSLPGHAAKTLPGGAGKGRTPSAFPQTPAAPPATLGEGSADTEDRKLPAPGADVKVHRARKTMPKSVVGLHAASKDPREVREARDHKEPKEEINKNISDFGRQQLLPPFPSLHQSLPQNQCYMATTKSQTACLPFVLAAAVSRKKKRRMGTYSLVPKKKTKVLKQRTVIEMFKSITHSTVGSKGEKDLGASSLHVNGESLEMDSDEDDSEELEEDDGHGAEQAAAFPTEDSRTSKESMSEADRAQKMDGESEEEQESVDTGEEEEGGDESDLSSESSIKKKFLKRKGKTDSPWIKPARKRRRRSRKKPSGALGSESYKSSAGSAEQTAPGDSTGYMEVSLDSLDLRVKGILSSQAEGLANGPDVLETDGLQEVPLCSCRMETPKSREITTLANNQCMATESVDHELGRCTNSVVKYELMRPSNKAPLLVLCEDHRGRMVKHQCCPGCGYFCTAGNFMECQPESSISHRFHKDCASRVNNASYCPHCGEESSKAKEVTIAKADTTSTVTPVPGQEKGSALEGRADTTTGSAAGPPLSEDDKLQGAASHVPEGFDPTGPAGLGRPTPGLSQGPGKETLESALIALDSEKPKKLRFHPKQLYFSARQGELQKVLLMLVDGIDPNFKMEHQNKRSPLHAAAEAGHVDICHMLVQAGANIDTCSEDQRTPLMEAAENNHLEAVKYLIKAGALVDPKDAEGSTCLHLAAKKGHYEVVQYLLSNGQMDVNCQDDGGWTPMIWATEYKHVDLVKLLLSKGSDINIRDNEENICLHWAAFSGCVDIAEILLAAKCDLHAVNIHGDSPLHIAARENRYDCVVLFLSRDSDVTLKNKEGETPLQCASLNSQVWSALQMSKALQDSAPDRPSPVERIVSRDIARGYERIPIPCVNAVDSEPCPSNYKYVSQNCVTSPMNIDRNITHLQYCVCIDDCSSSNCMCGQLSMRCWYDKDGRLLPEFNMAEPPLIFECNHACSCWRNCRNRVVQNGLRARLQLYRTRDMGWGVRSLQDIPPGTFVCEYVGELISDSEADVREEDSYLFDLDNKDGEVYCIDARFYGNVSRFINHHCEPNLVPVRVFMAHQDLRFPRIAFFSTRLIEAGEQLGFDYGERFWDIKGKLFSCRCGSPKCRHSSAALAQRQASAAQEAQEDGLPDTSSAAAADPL

MV4-11 = assay: Antiproliferative activity against mixed-lineage leukemia rearranged (MLL-r) human MV4-11 cells assessed as inhibition of cell growth incubated for 7 days by CCK-8 assay; assay type: functional; conditions: MV4-11, 168 h, time 7 day

How did the fold change (FC) [1] turn out when `Cc1ncsc1-c1ccc([C@H](CC(=O)NCCCCCCNC(=O)COc2nc(N)nc(Nc3cc(S(N)(=O)=O)ccc3N[C@@H](c3cccc4c3OC(F)(F)O4)c3ncccc3Cl)n2)NC(=O)[C@@H]2C[C@@H](O)CN2C(=O)[C@@H](NC(=O)C2(F)CC2)C(C)(C)C)cc1` was run?
Its fold change (FC) is 0.97.

What about the fold change (FC) [2] of the same molecule?
The fold change (FC) was 1.08.

What about the fold change (FC) [3] of the same molecule?
Its fold change (FC) is 0.17.

What about the Activity [4] of the same molecule?
The Activity was “inactive”.

What about the inhibition [5] of the same molecule?
Its inhibition is “inactive”.

What about the GI50 (MV4-11) of the same molecule?
Its GI50 is 212 nM.

— ChEMBL document CHEMBL6182889, “Discovery of the first-in-class DOT1L PROTAC degrader” (Eur J Med Chem, 2025)
